Measurements taken from PubChem BioAssay AID248 (DTP/NCI, 2004).
Where “and” joins values, the source holds several entries; their conditions need not be identical. Identical values can stand only once. Inconclusive results and toxic doses are left out.

System: L1210 leukemia ip in BDF1 mice, survival T/C
Assay: NCI In Vivo Anticancer Drug Screen. Data for tumor model L1210 Leukemia (intraperitoneal) in B6D2F1 (BDF1) mice
Settings: endpoint: mean survival time, higher = longer survival
How it was run: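 Mice bearing the transplanted tumor received compound or vehicle. Survival of the treated group was divided by that of the vehicle-treated control group to give the ratio.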

[1] = dose: 100.0 mg/kg/injection, schedule: Q01DX001 (ip), vehicle: saline
[2] = dose: 200.0 mg/kg/injection, schedule: Q01DX001 (ip), vehicle: saline
[3] = dose: 400.0 mg/kg/injection, schedule: Q01DX001 (ip), vehicle: saline
[4] = dose: 100.0 mg/kg/injection, schedule: Q01DX009 (ip), vehicle: Klucel (hydroxypropylcellulose) (HPC)
[5] = dose: 200.0 mg/kg/injection, schedule: Q01DX009 (ip), vehicle: Klucel (hydroxypropylcellulose) (HPC)
[6] = dose: 100.0 mg/kg/injection, schedule: Q01DX001 (ip), vehicle: Klucel (hydroxypropylcellulose) (HPC)
[7] = dose: 200.0 mg/kg/injection, schedule: Q01DX001 (ip), vehicle: Klucel (hydroxypropylcellulose) (HPC)
[8] = dose: 400.0 mg/kg/injection, schedule: Q01DX001 (ip), vehicle: Klucel (hydroxypropylcellulose) (HPC)
[9] = dose: 100.0 mg/kg/injection, schedule: Q04DX003 (ip), vehicle: Klucel (hydroxypropylcellulose) (HPC)
[10] = dose: 200.0 mg/kg/injection, schedule: Q04DX003 (ip), vehicle: Klucel (hydroxypropylcellulose) (HPC)
[11] = dose: 400.0 mg/kg/injection, schedule: Q04DX003 (ip), vehicle: Klucel (hydroxypropylcellulose) (HPC)

For CN(C)c1c(-c2ccc(Cl)cc2)cc(-c2ccccc2)[nH]c1=O, the T/C (dose: 100.0 mg/kg/injection, schedule: Q01DX001 (ip), vehicle: carboxymethylcellulose (CMC)) was 97 % of control, the T/C (dose: 100.0 mg/kg/injection, schedule: Q01DX009 (ip), vehicle: acetone) was 95 % of control and the T/C (dose: 100.0 mg/kg/injection, schedule: Q04DX003 (ip), vehicle: saline) was 89 % of control. For the same molecule, the T/C (dose: 200.0 mg/kg/injection, schedule: Q01DX001 (ip), vehicle: carboxymethylcellulose (CMC)) was 91 % of control, the T/C (dose: 200.0 mg/kg/injection, schedule: Q01DX009 (ip), vehicle: acetone) was 98 % of control and the T/C (dose: 200.0 mg/kg/injection, schedule: Q04DX003 (ip), vehicle: saline) was 89 % of control. For the same molecule, the T/C (dose: 400.0 mg/kg/injection, schedule: Q01DX001 (ip), vehicle: carboxymethylcellulose (CMC)) was 91 % of control, the T/C (dose: 400.0 mg/kg/injection, schedule: Q01DX009 (ip), vehicle: acetone) was 93 % of control and the T/C (dose: 400.0 mg/kg/injection, schedule: Q04DX003 (ip), vehicle: saline) was 87 % of control.
CC1C2CC3OC(=O)C1(C)C3C2 (centres undefined) was tested, and the T/C [1] was 92 % of control, the T/C [2] was 98 % of control and the T/C [3] was 96 % of control.
With CC1(C)OC(N)=C(C(N)=O)C1c1ccc(Cl)cc1 (centres undefined) the T/C [1] was 97 % of control, the T/C [2] was 95 % of control and the T/C [3] was 95 % of control.
With Nc1ccccc1/C=C/c1ccncc1 the T/C (dose: 50.0 mg/kg/injection, schedule: Q01DX009 (ip), vehicle: Klucel (hydroxypropylcellulose) (HPC)) was 100 % of control, the T/C [4] was 92 % of control and the T/C [5] was 101 % of control. The T/C (dose: 400.0 mg/kg/injection, schedule: Q01DX009 (ip), vehicle: Klucel (hydroxypropylcellulose) (HPC)) was 100 % of control.
For CC1(C)N=C(N)N=C(N)N1c1cccc(OCCCC#N)c1, the T/C [1] was 101 % of control.
O=C(NC1CCOC1=O)OCc1ccccc1 (centres undefined) was tested, and the T/C (dose: 100.0 mg/kg/injection, schedule: Q01DX009 (ip), vehicle: saline with Tween-80) was 94 % of control, the T/C (dose: 100.0 mg/kg/injection, schedule: Q04DX003 (ip), vehicle: saline with Tween-80) was 95 % of control and the T/C (dose: 200.0 mg/kg/injection, schedule: Q01DX009 (ip), vehicle: saline with Tween-80) was 95 % of control. The T/C (dose: 200.0 mg/kg/injection, schedule: Q04DX003 (ip), vehicle: saline with Tween-80) was 91 % of control, the T/C (dose: 400.0 mg/kg/injection, schedule: Q01DX009 (ip), vehicle: saline with Tween-80) was 94 % of control and the T/C (dose: 400.0 mg/kg/injection, schedule: Q04DX003 (ip), vehicle: saline with Tween-80) was 95 % of control.
With c1ccc(-c2c(-c3ccccc3)c(-c3ccccc3)c(-c3ccccc3)c(-c3ccccc3)c2-c2ccccc2)cc1 the T/C (dose: 25.0 mg/kg/injection, schedule: Q01DX009 (ip), vehicle: water) was 104 % of control, the T/C (dose: 50.0 mg/kg/injection, schedule: Q01DX009 (ip), vehicle: water) was 102 % of control and the T/C (dose: 100.0 mg/kg/injection, schedule: Q01DX009 (ip), vehicle: water) was 96 % of control. The T/C (dose: 200.0 mg/kg/injection, schedule: Q01DX009 (ip), vehicle: water) was 100 % of control and the T/C (dose: 400.0 mg/kg/injection, schedule: Q01DX009 (ip), vehicle: water) was 97 % of control.
CCN1C(=O)Cc2ccccc21 was tested, and the T/C [6] was 98 % of control, the T/C [7] was 102 % of control and the T/C [8] was 93 % of control.
For C#CC1(NC(c2cc(Cl)cc(Cl)c2O)P(=O)(c2ccccc2)c2ccccc2)CCCCC1 (centres undefined), the T/C [4] was 94 % of control and the T/C [5] was 102 % of control.
CC(=O)NC(Cc1ccsc1)(C(=O)O)C(=O)O was tested, and the T/C [1] was 93 % of control, the T/C [2] was 98 % of control and the T/C [3] was 98 % of control.
For Cc1ccc(/C(O)=C\C(=S)SS)cc1, the T/C [6] was 108 % of control, the T/C (dose: 100.0 mg/kg/injection, schedule: Q01DX009 (ip), vehicle: saline) was 100 % of control and the T/C [9] was 97 % of control. The T/C [7] was 100 % of control, the T/C (dose: 200.0 mg/kg/injection, schedule: Q01DX009 (ip), vehicle: saline) was 102 % of control and the T/C [10] was 90 % of control. For the same molecule, the T/C [8] was 97 % of control, the T/C (dose: 400.0 mg/kg/injection, schedule: Q01DX009 (ip), vehicle: saline) was 100 % of control and the T/C [11] was 92 % of control.
In the case of NNc1nnnc2ccccc12, the T/C (dose: 20.0 mg/kg/injection, schedule: Q01DX001 (ip), vehicle: Klucel (hydroxypropylcellulose) (HPC)) is reported as 108 % of control.
In the case of CC(C)(C)C1CCC(NC2=NCCO2)CC1 (centres undefined), the T/C (dose: 25.0 mg/kg/injection, schedule: Q01DX001 (ip), vehicle: Klucel (hydroxypropylcellulose) (HPC)) is reported as 103 % of control, the T/C (dose: 50.0 mg/kg/injection, schedule: Q01DX001 (ip), vehicle: Klucel (hydroxypropylcellulose) (HPC)) is reported as 104 % of control and the T/C (dose: 50.0 mg/kg/injection, schedule: Q04DX003 (ip), vehicle: Klucel (hydroxypropylcellulose) (HPC)) is reported as 96 % of control. The T/C [6] was 93 % of control and 100 % of control and the T/C [9] was 102 % of control.
CNC(Cc1ccccc1)c1ccc(OC)cc1 (centres undefined) was tested, and the T/C [4] was 100 % of control, the T/C [9] was 96 % of control and the T/C [5] was 98 % of control. The T/C [10] was 98 % of control and the T/C [11] was 101 % of control.
For O=C1C(Cl)=C(Cl)C(=O)N1CCCCCCN1C(=O)C(Cl)=C(Cl)C1=O, the T/C [9] was 92 % of control, the T/C [10] was 87 % of control and the T/C [11] was 92 % of control.
In the case of O=NN(CCCl)C(=O)Nc1c[nH]c(=O)[nH]c1=O, the T/C (dose: 0.75 mg/kg/injection, schedule: Q01DX Z (ip), vehicle: carboxymethylcellulose (CMC)) is reported as 200 % of control, the T/C (dose: 1.0 mg/kg/injection, schedule: Q01DX Z (ip), vehicle: carboxymethylcellulose (CMC)) is reported as 177 % of control and the T/C (dose: 1.5 mg/kg/injection, schedule: Q01DX Z (ip), vehicle: carboxymethylcellulose (CMC)) is reported as 185 % of control. The T/C (dose: 2.0 mg/kg/injection, schedule: Q01DX Z (ip), vehicle: carboxymethylcellulose (CMC)) was 192 % of control, the T/C (dose: 3.0 mg/kg/injection, schedule: Q01DX Z (ip), vehicle: carboxymethylcellulose (CMC)) was 210 % of control and 212 % of control and the T/C (dose: 6.0 mg/kg/injection, schedule: Q01DX Z (ip), vehicle: carboxymethylcellulose (CMC)) was 189 % of control. The T/C (dose: 18.0 mg/kg/injection, schedule: Q01DX Z (ip), vehicle: carboxymethylcellulose (CMC)) was 110 % of control, the T/C (dose: 20.0 mg/kg/injection, schedule: Q01DX001 (ip), vehicle: carboxymethylcellulose (CMC)) was 205 % of control and the T/C (dose: 31.0 mg/kg/injection, schedule: Q01DX001 (ip), vehicle: carboxymethylcellulose (CMC)) was 155 % of control. The T/C (dose: 40.0 mg/kg/injection, schedule: Q01DX001 (ip), vehicle: carboxymethylcellulose (CMC)) was 288 % of control, the T/C (dose: 50.0 mg/kg/injection, schedule: Q01DX001 (ip), vehicle: carboxymethylcellulose (CMC)) was 229 % of control and the T/C (dose: 62.0 mg/kg/injection, schedule: Q01DX001 (ip), vehicle: carboxymethylcellulose (CMC)) was 231 % of control. The T/C (dose: 80.0 mg/kg/injection, schedule: Q01DX001 (ip), vehicle: carboxymethylcellulose (CMC)) was 174 % of control and the T/C (dose: 125.0 mg/kg/injection, schedule: Q01DX001 (ip), vehicle: carboxymethylcellulose (CMC)) was 89 % of control.
With CCCCC(=O)c1ccc(C)cc1 the T/C [1] was 102 % of control, the T/C [2] was 98 % of control and the T/C [3] was 96 % of control.
